# Results: patent US8710065B2, “Tricyclic inhibitors of kinases” (AbbVie Inc., priority 2011, dated 2014)
# Molecular target: T1, GST-tagged-Wee1 kinase (Homo sapiens, UniProt P30291)
# T1 construct: purchased Carnabio (Carna Biosciences) 05-177
# Experiment: Wee1 time-resolved fluorescence equilibrium binding assay (displacement of Oregon Green-labeled ATP-competitive kinase probe)
# Details: read-out: Wee-1 inhibition (Ki)
# How it was run: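 Ki values derive from competitive displacement, under equilibrium, of a fast-reversible ATP-site Oregon Green kinase probe from GST-tagged Wee1, detected by time-resolved fluorescence.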
# T1 sequence (P30291 whole entry): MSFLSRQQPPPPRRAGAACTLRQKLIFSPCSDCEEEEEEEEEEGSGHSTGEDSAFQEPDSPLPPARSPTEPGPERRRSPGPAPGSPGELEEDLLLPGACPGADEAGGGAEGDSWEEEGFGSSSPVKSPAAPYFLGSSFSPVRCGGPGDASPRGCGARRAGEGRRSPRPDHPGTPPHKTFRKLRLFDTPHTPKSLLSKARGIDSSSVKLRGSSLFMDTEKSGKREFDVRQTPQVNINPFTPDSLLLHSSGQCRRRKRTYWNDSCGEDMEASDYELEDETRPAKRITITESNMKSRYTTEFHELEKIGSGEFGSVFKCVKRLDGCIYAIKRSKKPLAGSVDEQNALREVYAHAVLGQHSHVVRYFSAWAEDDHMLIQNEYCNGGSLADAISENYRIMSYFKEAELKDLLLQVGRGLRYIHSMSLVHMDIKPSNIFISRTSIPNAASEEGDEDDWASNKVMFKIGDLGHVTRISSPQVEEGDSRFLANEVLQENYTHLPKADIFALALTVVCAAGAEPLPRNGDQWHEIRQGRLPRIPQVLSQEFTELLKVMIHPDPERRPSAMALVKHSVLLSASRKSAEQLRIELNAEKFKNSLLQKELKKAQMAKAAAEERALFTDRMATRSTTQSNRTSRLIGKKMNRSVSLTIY
row,Compound,Ki [µM]
1,"CN(C)C1CCC(NC(=O)c2ccc(Nc3ncc4c(=O)n(-c5c(Cl)cccc5Cl)c5nccn5c4n3)cc2)CC1 (centres unmarked) [Example 238, 4-{[6-(2,6-dichlorophenyl)-5-oxo-5,6-dihydroimidazo[1,2-a]pyrimido[5,4-e]pyrimidin-2-yl]amino}-N-[4-(dimethylamino)cyclohexyl]benzamide]",< 0.01
2,"CN1CCC(NC(=O)c2ccc(Nc3ncc4c(=O)n(-c5c(Cl)cccc5Cl)c5nccn5c4n3)cc2)CC1 [Example 239, 4-{[6-(2,6-dichlorophenyl)-5-oxo-5,6-dihydroimidazo[1,2-a]pyrimido[5,4-e]pyrimidin-2-yl]amino}-N-(1-methylpiperidin-4-yl)benzamide]",< 0.01
3,"O=c1c2cnc(Nc3ccc(N4CCC(N5CCCC5)CC4)cc3)nc2n2ccnc2n1-c1c(Cl)cccc1Cl [Example 240, 6-(2,6-dichlorophenyl)-2-({4-[4-(pyrrolidin-1-yl)piperidin-1-yl]phenyl}amino)imidazo[1,2-a]pyrimido[5,4-e]pyrimidin-5(6H)-one]",< 0.01
4,"CC(=O)N1Cc2cc(Nc3ncc4c(=O)n(-c5c(F)cccc5Cl)c5nccn5c4n3)ccc2C2(CC2)C1 [Example 241, 2-[(2′-acetyl-2′,3′-dihydro-1′H-spiro[cyclopropane-1,4′-isoquinolin]-7′-yl)amino]-6-(2-chloro-6-fluorophenyl)imidazo[1,2-a]pyrimido[5,4-e]pyrimidin-5(6H)-one]",< 0.01
5,"O=C(C1CC1)N1Cc2cc(Nc3ncc4c(=O)n(-c5c(F)cccc5Cl)c5nccn5c4n3)ccc2C2(CC2)C1 [Example 242, 6-(2-chloro-6-fluorophenyl)-2-{[2′-(cyclopropylcarbonyl)-2′,3′-dihydro-1′H-spiro[cyclopropane-1,4′-isoquinolin]-7′-yl]amino}imidazo[1,2-a]pyrimido[5,4-e]pyrimidin-5(6H)-one]",< 0.01
6,"CS(=O)(=O)N1Cc2cc(Nc3ncc4c(=O)n(-c5c(F)cccc5Cl)c5nccn5c4n3)ccc2C2(CC2)C1 [Example 243, 6-(2-chloro-6-fluorophenyl)-2-{[2′-(methylsulfonyl)-2′,3′-dihydro-1′H-spiro[cyclopropane-1,4′-isoquinolin]-7′-yl]amino}imidazo[1,2-a]pyrimido[5,4-e]pyrimidin-5(6H)-one]",< 0.01
7,"O=c1c2cnc(Nc3ccc(N4CCN5CCC[C@@H]5C4)cc3)nc2n2ccnc2n1-c1c(F)cccc1Cl [Example 244, 6-(2-chloro-6-fluorophenyl)-2-({4-[(8aR)-hexahydropyrrolo[1,2-a]pyrazin-2(1H)-yl]phenyl}amino)imidazo[1,2-a]pyrimido[5,4-e]pyrimidin-5(6H)-one]",< 0.01
8,"O=c1c2cnc(Nc3ccc(N[C@H]4CN5CCC4CC5)cc3)nc2n2ccnc2n1-c1ccccc1Cl [Example 245, 2-({4-[(3R)-1-azabicyclo[2.2.2]oct-3-ylamino]phenyl}amino)-6-(2-chlorophenyl)imidazo[1,2-a]pyrimido[5,4-e]pyrimidin-5(6H)-one]",< 0.01
9,"O=c1c2cnc(Nc3ccc(NCCN4CCCC4)cc3)nc2n2ccnc2n1-c1ccccc1Cl [Example 246, 6-(2-chlorophenyl)-2-[(4-{[2-(pyrrolidin-1-yl)ethyl]amino}phenyl)amino]imidazo[1,2-a]pyrimido[5,4-e]pyrimidin-5(6H)-one]",< 0.01
10,"O=c1c2cnc(Nc3ccc(N4CCN(c5ccccn5)CC4)cc3)nc2n2ccnc2n1-c1ccccc1Cl [Example 247, 6-(2-chlorophenyl)-2-({4-[4-(pyridin-2-yl)piperazin-1-yl]phenyl}amino)imidazo[1,2-a]pyrimido[5,4-e]pyrimidin-5(6H)-one]",< 0.01
11,"O=c1c2cnc(Nc3ccc(NCCN4CCOCC4)cc3)nc2n2ccnc2n1-c1ccccc1Cl [Example 248, 6-(2-chlorophenyl)-2-[(4-{[2-(morpholin-4-yl)ethyl]amino}phenyl)amino]imidazo[1,2-a]pyrimido[5,4-e]pyrimidin-5(6H)-one]",< 0.01
12,"O=c1c2cnc(Nc3ccc(N4CCC[C@H]4CN4CCCC4)cc3)nc2n2ccnc2n1-c1ccccc1Cl [Example 249, 6-(2-chlorophenyl)-2-({4-[(2S)-2-(pyrrolidin-1-ylmethyl)pyrrolidin-1-yl]phenyl}amino)imidazo[1,2-a]pyrimido[5,4-e]pyrimidin-5(6H)-one]",< 0.01
13,"CN(C)CCCN1CCN(c2ccc(Nc3ncc4c(=O)n(-c5ccccc5Cl)c5nccn5c4n3)cc2)CC1 [Example 250, 6-(2-chlorophenyl)-2-[(4-{4-[3-(dimethylamino)propyl]piperazin-1-yl}phenyl)amino]imidazo[1,2-a]pyrimido[5,4-e]pyrimidin-5(6H)-one]",< 0.01
14,"COC[C@H]1CCCN1c1ccc(Nc2ncc3c(=O)n(-c4ccccc4Cl)c4nccn4c3n2)cc1 [Example 251, 6-(2-chlorophenyl)-2-({4-[(2R)-2-(methoxymethyl)pyrrolidin-1-yl]phenyl}amino)imidazo[1,2-a]pyrimido[5,4-e]pyrimidin-5(6H)-one]",< 0.01
15,"CCN(CC)C(=O)C1CCCN(c2ccc(Nc3ncc4c(=O)n(-c5ccccc5Cl)c5nccn5c4n3)cc2)C1 (centres unmarked) [Example 252, 1-(4-{[6-(2-chlorophenyl)-5-oxo-5,6-dihydroimidazo[1,2-a]pyrimido[5,4-e]pyrimidin-2-yl]amino}phenyl)-N,N-diethylpiperidine-3-carboxamide]",< 0.01
16,"O=C1CCCN1CCCNc1ccc(Nc2ncc3c(=O)n(-c4ccccc4Cl)c4nccn4c3n2)cc1 [Example 253, 6-(2-chlorophenyl)-2-[(4-{[3-(2-oxopyrrolidin-1-yl)propyl]amino}phenyl)amino]imidazo[1,2-a]pyrimido[5,4-e]pyrimidin-5(6H)-one]",< 0.01
17,"O=c1c2cnc(Nc3ccc(N4CCN(c5ccc(F)cc5)CC4)cc3)nc2n2ccnc2n1-c1ccccc1Cl [Example 254, 6-(2-chlorophenyl)-2-({4-[4-(4-fluorophenyl)piperazin-1-yl]phenyl}amino)imidazo[1,2-a]pyrimido[5,4-e]pyrimidin-5(6H)-one]",0.01 to 0.1
18,"CN(C)C1CCN(c2ccc(Nc3ncc4c(=O)n(-c5c(F)cccc5Cl)c5nccn5c4n3)cc2)CC1 [Example 255, 6-(2-chloro-6-fluorophenyl)-2-({4-[4-(dimethylamino)piperidin-1-yl]phenyl}amino)imidazo[1,2-a]pyrimido[5,4-e]pyrimidin-5(6H)-one]",< 0.01
19,"O=c1c2cnc(Nc3ccc4c(c3)CC(N3CC[C@H](F)C3)C4)nc2n2ccnc2n1-c1c(F)cccc1Cl (stereo partly drawn) [Example 256, 6-(2-chloro-6-fluorophenyl)-2-({2-[(3S)-3-fluoropyrrolidin-1-yl]-2,3-dihydro-1H-inden-5-yl}amino)imidazo[1,2-a]pyrimido[5,4-e]pyrimidin-5(6H)-one]",< 0.01
20,"O=c1c2cnc(Nc3ccc4c(c3)CC(NCCF)C4)nc2n2ccnc2n1-c1c(F)cccc1Cl (centres unmarked) [Example 257, 6-(2-chloro-6-fluorophenyl)-2-({2-[(2-fluoroethyl)amino]-2,3-dihydro-1H-inden-5-yl}amino)imidazo[1,2-a]pyrimido[5,4-e]pyrimidin-5(6H)-one]",< 0.01
21,"CCCNC1Cc2ccc(Nc3ncc4c(=O)n(-c5c(F)cccc5Cl)c5nccn5c4n3)cc2C1 (centres unmarked) [Example 258, 6-(2-chloro-6-fluorophenyl)-2-{[2-(propylamino)-2,3-dihydro-1H-inden-5-yl]amino}imidazo[1,2-a]pyrimido[5,4-e]pyrimidin-5(6H)-one]",< 0.01
22,"O=c1c2cnc(Nc3ccc4c(c3)CC(N3CCCC3)C4)nc2n2ccnc2n1-c1c(F)cccc1Cl (centres unmarked) [Example 259, 6-(2-chloro-6-fluorophenyl)-2-{[2-(pyrrolidin-1-yl)-2,3-dihydro-1H-inden-5-yl]amino}imidazo[1,2-a]pyrimido[5,4-e]pyrimidin-5(6H)-one]",< 0.01
23,"CN(C)CCN1CCN(c2ccc(Nc3ncc4c(=O)n(-c5ccccc5Cl)c5nccn5c4n3)cc2)CC1 [Example 260, 6-(2-chlorophenyl)-2-[(4-{4-[2-(dimethylamino)ethyl]piperazin-1-yl}phenyl)amino]imidazo[1,2-a]pyrimido[5,4-e]pyrimidin-5(6H)-one]",< 0.01
24,"CN(C)CCCN(C)c1ccc(Nc2ncc3c(=O)n(-c4ccccc4Cl)c4nccn4c3n2)cc1 [Example 261, 6-(2-chlorophenyl)-2-[(4-{[3-(dimethylamino)propyl](methyl)amino}phenyl)amino]imidazo[1,2-a]pyrimido[5,4-e]pyrimidin-5(6H)-one]",< 0.01
25,"CCN(CCN(C)C)c1ccc(Nc2ncc3c(=O)n(-c4ccccc4Cl)c4nccn4c3n2)cc1 [Example 262, 6-(2-chlorophenyl)-2-[(4-{[2-(dimethylamino)ethyl](ethyl)amino}phenyl)amino]imidazo[1,2-a]pyrimido[5,4-e]pyrimidin-5(6H)-one]",< 0.01
26,"CN(C)CCN(C)c1ccc(Nc2ncc3c(=O)n(-c4ccccc4Cl)c4nccn4c3n2)cc1 [Example 263, 6-(2-chlorophenyl)-2-[(4-{[2-(dimethylamino)ethyl](methyl)amino}phenyl)amino]imidazo[1,2-a]pyrimido[5,4-e]pyrimidin-5(6H)-one]",< 0.01
27,"COC[C@@H]1CCCN1c1ccc(Nc2ncc3c(=O)n(-c4ccccc4Cl)c4nccn4c3n2)cc1 [Example 264, 6-(2-chlorophenyl)-2-({4-[(2S)-2-(methoxymethyl)pyrrolidin-1-yl]phenyl}amino)imidazo[1,2-a]pyrimido[5,4-e]pyrimidin-5(6H)-one]",0.01 to 0.1
28,"CC(C)C(=O)N1Cc2cc(Nc3ncc4c(=O)n(-c5c(F)cccc5Cl)c5nccn5c4n3)ccc2C2(CC2)C1 [Example 265, 6-(2-chloro-6-fluorophenyl)-2-{[2′-(2-methylpropanoyl)-2′,3′-dihydro-1′H-spiro[cyclopropane-1,4′-isoquinolin]-7′-yl]amino}imidazo[1,2-a]pyrimido[5,4-e]pyrimidin-5(6H)-one]",< 0.01
29,"CC(C)(C)C(=O)N1Cc2cc(Nc3ncc4c(=O)n(-c5c(F)cccc5Cl)c5nccn5c4n3)ccc2C2(CC2)C1 [Example 266, 6-(2-chloro-6-fluorophenyl)-2-{[2′-(2,2-dimethylpropanoyl)-2′,3′-dihydro-1′H-spiro[cyclopropane-1,4′-isoquinolin]-7′-yl]amino}imidazo[1,2-a]pyrimido[5,4-e]pyrimidin-5(6H)-one]",< 0.01
